The record followed here is PubChem BioAssay (NCI).

Some test systems named below: COLO 205 colon; SK-MEL-28 melanoma; SK-MEL-5 melanoma; CAKI-1 renal; MDA-MB-231 breast; SK-MEL-2 melanoma; NCI-H522 lung; SK-OV-3 ovarian; HCT-116 colon; CCRF-CEM leukemia.
Holding throughout (experiment): NCI anticancer screen, dose series, 48 h

Molecules are shown by their SMILES.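 Step 1: Grow cells in 96-well plates. Step 2: Expose to compound for 48 hours at 5 concentrations. Step 3: Interpolate endpoints linearly; if unreached, use highest concentration. Abbreviation: GI50, concentration required for 50% inhibition of growth. TGI marks complete inhibition of growth.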

Turning to `NN=C(CC(O)(C(F)(F)Cl)C(F)(F)Cl)CC(O)(C(F)(F)Cl)C(F)(F)Cl`, the TGI with COLO 205 colon, in the assay with SK-MEL-28 melanoma, in the assay with SK-MEL-5 melanoma, with CAKI-1 renal, in the assay with MDA-MB-231 breast and in the assay on SK-MEL-2 melanoma was over 10 µM in each case. Also, the TGI in the assay on NCI-H522 lung, with SK-OV-3 ovarian, with HCT-116 colon and with CCRF-CEM leukemia was over 10 µM each time.
For the compound `CCCCCC[C@H](C)Nc1nc2ccccc2c2occc12`, the GI50 is 34.4 µM in the assay on COLO 205 colon; 21.2 µM in the assay on SK-MEL-28 melanoma; 3.66 µM with SK-MEL-5 melanoma; 10.6 µM with CAKI-1 renal; 10.6 µM in the assay on MDA-MB-231 breast; 14.8 µM with SK-MEL-2 melanoma. Also, the GI50 in the assay on NCI-H522 lung is 2.26 µM; in the assay with SK-OV-3 ovarian it was 16.5 µM; in the assay with HCT-116 colon it was 3.2 µM; in the assay with CCRF-CEM leukemia it was 4.33 µM. For the same compound, the TGI is over 100 µM in the assay with COLO 205 colon; 47.2 µM in the assay with SK-MEL-28 melanoma; 18 µM with SK-MEL-5 melanoma; 26.3 µM in the assay on CAKI-1 renal; 24 µM in the assay with MDA-MB-231 breast; 32.6 µM with SK-MEL-2 melanoma. Also, the TGI is 13.9 µM with NCI-H522 lung, 36.2 µM in the assay on SK-OV-3 ovarian, 13.3 µM in the assay with HCT-116 colon and 21.1 µM with CCRF-CEM leukemia.
Regarding `CN(C)c1nc2ccccc2c2c1c1c(n2Cc2ccccc2)-c2ccccc2C1=O`, the GI50 is over 100 µM with COLO 205 colon; over 100 µM with SK-MEL-28 melanoma; 39.1 µM with SK-MEL-5 melanoma; over 100 µM in the assay on CAKI-1 renal; over 100 µM with MDA-MB-231 breast; over 100 µM in the assay on SK-MEL-2 melanoma. Also, the GI50 in the assay on NCI-H522 lung is over 100 µM; in the assay on SK-OV-3 ovarian it was over 100 µM; in the assay on HCT-116 colon, 8.79 µM; in the assay on CCRF-CEM leukemia, 62.7 µM. The TGI in the assay on COLO 205 colon, in the assay with SK-MEL-28 melanoma, with SK-MEL-5 melanoma, in the assay with CAKI-1 renal, with MDA-MB-231 breast and in the assay with SK-MEL-2 melanoma was over 100 µM in each case. Moreover, the TGI in the assay with NCI-H522 lung, in the assay on SK-OV-3 ovarian, in the assay on HCT-116 colon and in the assay on CCRF-CEM leukemia was over 100 µM throughout.
For the compound `O=C1/C(=C/c2ccccc2)CN(C(=O)CCN2CCCC2)C/C1=C\c1ccccc1`, the TGI with COLO 205 colon came to 3.25 µM; in the assay with SK-MEL-28 melanoma it was 3.38 µM; in the assay on SK-MEL-5 melanoma it was 3.48 µM; in the assay on CAKI-1 renal, 14.8 µM; in the assay with MDA-MB-231 breast, 3.78 µM; in the assay with SK-MEL-2 melanoma, 8.41 µM. The TGI was 2.8 µM with NCI-H522 lung, 20.5 µM in the assay with SK-OV-3 ovarian, 0.674 µM in the assay on HCT-116 colon and 1.06 µM in the assay on CCRF-CEM leukemia.
Turning to `O=c1[nH]c2ccccc2n1CCCN1CCC(n2c(=O)[nH]c3cc(Cl)ccc32)CC1`, the TGI in the assay with COLO 205 colon was determined as 27.9 µM; in the assay on SK-MEL-28 melanoma, 31.1 µM; with SK-MEL-5 melanoma, 29.1 µM; in the assay on CAKI-1 renal, 50.6 µM; in the assay with MDA-MB-231 breast, 37.4 µM; with SK-MEL-2 melanoma, 35.7 µM. The TGI was 29.7 µM with NCI-H522 lung, 51.5 µM with SK-OV-3 ovarian, 31.4 µM in the assay with HCT-116 colon and over 100 µM in the assay on CCRF-CEM leukemia.
On to `COc1cc(NC(=O)CCSc2nc3ccc(C)cc3c(=O)n2Cc2ccccc2)cc(OC)c1OC`, for which the GI50 in the assay with COLO 205 colon was over 100 µM; in the assay on SK-MEL-28 melanoma, 6.3 µM; in the assay with SK-MEL-5 melanoma, 32.4 µM; in the assay on CAKI-1 renal it was over 100 µM; with MDA-MB-231 breast, 4.2 µM; in the assay with SK-MEL-2 melanoma it was 4.4 µM. Moreover, the GI50 in the assay on NCI-H522 lung was 11.3 µM; in the assay with SK-OV-3 ovarian, 4.75 µM; with HCT-116 colon, 4.35 µM; in the assay with CCRF-CEM leukemia, over 100 µM. The TGI was over 100 µM with COLO 205 colon; over 100 µM with SK-MEL-28 melanoma; over 100 µM in the assay on SK-MEL-5 melanoma; over 100 µM in the assay with CAKI-1 renal; 52.8 µM in the assay with MDA-MB-231 breast; 27.5 µM in the assay on SK-MEL-2 melanoma. For the same compound, the TGI was 76.7 µM in the assay with NCI-H522 lung, 39.3 µM with SK-OV-3 ovarian, over 100 µM in the assay with HCT-116 colon and over 100 µM in the assay on CCRF-CEM leukemia.
As for `O=c1/c(=C\c2ccc(F)cc2)sc2n1C(c1ccc(F)cc1)C1=C(N=2)c2ccc3ccccc3c2OCC1` (centres undefined), the GI50 in the assay with COLO 205 colon, in the assay on SK-MEL-28 melanoma, in the assay with SK-MEL-5 melanoma, in the assay with MDA-MB-231 breast, in the assay with SK-MEL-2 melanoma and with NCI-H522 lung was over 100 µM in each case. In addition, the GI50 in the assay on SK-OV-3 ovarian, in the assay with HCT-116 colon and in the assay on CCRF-CEM leukemia was over 100 µM throughout. Besides, the TGI is over 100 µM in the assay on COLO 205 colon; over 100 µM in the assay on SK-MEL-28 melanoma; over 100 µM with SK-MEL-5 melanoma; over 66.9 µM in the assay with CAKI-1 renal; over 100 µM in the assay on MDA-MB-231 breast; over 100 µM with SK-MEL-2 melanoma. Further, the TGI in the assay with NCI-H522 lung, in the assay with SK-OV-3 ovarian, in the assay on HCT-116 colon and in the assay on CCRF-CEM leukemia was over 100 µM each time.
Take `Cc1c2c(c(C)c3c4c(oc13)CCCC4)C=NCC2`: the TGI was 48.5 µM in the assay with COLO 205 colon; 35.7 µM with SK-MEL-28 melanoma; 30.8 µM in the assay with SK-MEL-5 melanoma; 28 µM in the assay with CAKI-1 renal; 32.9 µM in the assay with MDA-MB-231 breast; 31.2 µM with SK-MEL-2 melanoma. The TGI in the assay with NCI-H522 lung came out at 31.3 µM; with SK-OV-3 ovarian it was 38.1 µM; with HCT-116 colon it was 35.9 µM; in the assay with CCRF-CEM leukemia it was 29.4 µM.
